Biological target: PIK3CA (human) (UniProt P42336)
Assay: Assessment of PIK3CA Kinase Activity

Sequence of PIK3CA (human) (P42336 whole entry, looked up): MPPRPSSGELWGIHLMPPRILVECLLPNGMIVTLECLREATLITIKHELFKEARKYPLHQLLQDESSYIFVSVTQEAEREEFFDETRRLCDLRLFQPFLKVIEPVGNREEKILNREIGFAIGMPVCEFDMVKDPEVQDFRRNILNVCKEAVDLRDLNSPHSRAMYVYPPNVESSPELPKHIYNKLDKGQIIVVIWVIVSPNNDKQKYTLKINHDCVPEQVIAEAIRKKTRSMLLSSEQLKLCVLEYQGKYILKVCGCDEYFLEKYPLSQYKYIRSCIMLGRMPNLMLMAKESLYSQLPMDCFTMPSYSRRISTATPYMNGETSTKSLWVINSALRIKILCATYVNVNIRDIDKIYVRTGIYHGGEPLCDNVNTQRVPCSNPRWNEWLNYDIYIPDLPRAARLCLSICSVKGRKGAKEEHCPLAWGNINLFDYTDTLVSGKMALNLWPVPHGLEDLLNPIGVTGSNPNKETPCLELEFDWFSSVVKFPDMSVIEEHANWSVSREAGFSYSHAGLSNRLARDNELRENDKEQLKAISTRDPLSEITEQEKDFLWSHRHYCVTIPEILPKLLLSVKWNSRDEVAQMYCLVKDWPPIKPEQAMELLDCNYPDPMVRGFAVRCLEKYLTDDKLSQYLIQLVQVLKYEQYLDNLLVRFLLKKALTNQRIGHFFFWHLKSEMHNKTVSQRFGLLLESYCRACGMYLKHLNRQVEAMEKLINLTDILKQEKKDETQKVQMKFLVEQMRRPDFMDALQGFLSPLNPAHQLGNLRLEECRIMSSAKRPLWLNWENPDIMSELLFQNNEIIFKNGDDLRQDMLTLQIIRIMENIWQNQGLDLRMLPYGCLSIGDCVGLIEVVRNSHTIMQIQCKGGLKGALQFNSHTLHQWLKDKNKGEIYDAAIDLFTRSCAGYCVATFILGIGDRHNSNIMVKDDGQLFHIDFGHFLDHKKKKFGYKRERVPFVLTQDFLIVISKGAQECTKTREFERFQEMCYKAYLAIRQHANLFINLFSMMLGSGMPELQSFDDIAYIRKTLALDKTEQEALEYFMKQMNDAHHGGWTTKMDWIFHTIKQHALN

| SMILES | IC50 |
| --- | --- |
| NCCNc1nn2c(-c3cnc(N)c(C(F)(F)F)c3)cnc2s1 | 50 to 1000 nM |
| CS(=O)(=O)N1CCC(Nc2nn3c(-c4cncc(C#N)c4)cnc3s2)CC1 | 50 to 1000 nM |
| CS(=O)(=O)NC1CCN(c2nn3c(-c4cnc(N)c(C(F)(F)F)c4)cnc3s2)CC1 | 162 nM |
| CN(c1nn2c(-c3cnc(N)c(C(F)(F)F)c3)cnc2s1)[C@H]1CC[C@@](C)(O)CC1 | 50 to 1000 nM |
| CS(=O)(=O)N1CCC(Nc2nn3c(-c4cnc(N)c(C(F)(F)F)c4)c(Cl)nc3s2)CC1 | 24 nM |
| Nc1ncc(-c2cnc3sc(N4CC5(CCNCC5)C4)nn23)cc1C(F)(F)F | 50 to 1000 nM |
| Nc1ncc(-c2cnc3sc(N4C[C@H]5CNC[C@H]5C4)nn23)cc1C(F)(F)F | 50 to 1000 nM |
| CS(=O)(=O)N1CCN(c2nn3c(-c4cnc(N)c(C(F)(F)F)c4)cnc3s2)CC1 | 50 to 1000 nM |
| CC(C)(C)OC(=O)N1CCC2(CC1)CC(Nc1nn3c(-c4cnc(N)c(C(F)(F)F)c4)cnc3s1)C2 | 50 to 1000 nM |
| C[C@]1(O)CC[C@@H](Nc2nn3c(-c4cnc(N)c(C(F)(F)F)c4)cnc3s2)CC1 | 22 nM |
| CS(=O)(=O)NC1CCN(c2nn3c(-c4cnc(N)c(C(F)(F)F)c4)cnc3s2)C1 (stereo not given) | 50 to 1000 nM |
| CS(=O)(=O)N1CCC(Nc2nn3c(-c4cnc(N)c(C(F)(F)F)c4)cnc3s2)CC1 | 12 nM |
| CC(C)S(=O)(=O)N1CCC(Nc2nn3c(-c4cnc(N)c(C(F)(F)F)c4)cnc3s2)CC1 | 291 nM |
| CN(c1nn2c(-c3cnc(N)c(C(F)(F)F)c3)cnc2s1)C1CCNCC1 | 50 to 1000 nM |
| CS(=O)(=O)N1CCN2CCN(c3nn4c(-c5cnc(N)c(C(F)(F)F)c5)cnc4s3)CC2C1 (stereo not given) | 94 nM |
| Cc1nc2sc(NC3CCN(S(C)(=O)=O)CC3)nn2c1-c1cnc(N)c(C(F)(F)F)c1 | 1 to 50 nM |
| CN1CCC(CNc2nn3c(-c4cnc(N)c(C(F)(F)F)c4)cnc3s2)CC1 | 301 nM |
| CC(C)(C)OC(=O)N1CCN(CCNc2nn3c(-c4cnc(N)c(C(F)(F)F)c4)cnc3s2)CC1 | 86 nM |
| NCC1CCCN(c2nn3c(-c4cnc(N)c(C(F)(F)F)c4)cnc3s2)C1 (stereo not given) | 50 to 1000 nM |
| Nc1ncc(-c2cnc3sc(NC4CC5(CCNCC5)C4)nn23)cc1C(F)(F)F | 17 nM |
| CC(=O)N[C@H]1CC[C@H](Nc2nn3c(-c4cnc(N)c(C(F)(F)F)c4)cnc3s2)CC1 | 50 to 1000 nM |
| CN(c1nn2c(-c3cnc(N)c(C(F)(F)F)c3)cnc2s1)C1CCC(=NO)CC1 (stereo not given) | 82 nM |
| CC(C)(C)OC(=O)N1CCC2(CC1)CCN(c1nn3c(-c4cnc(N)c(C(F)(F)F)c4)cnc3s1)CC2 | 1600 nM |

| SMILES | IC50 |
| --- | --- |
| Nc1ncc(-c2cnc3sc(NC[C@H]4CC[C@H](O)CC4)nn23)cc1C(F)(F)F | 129 nM |
| CC(C)(C)OC(=O)N1CCC(Nc2nn3c(-c4cnc(N)c(C(F)(F)F)c4)cnc3s2)CC1 | 50 to 1000 nM |
| Nc1ncc(-c2cnc3sc(N4CCC5(CCNCC5)CC4)nn23)cc1C(F)(F)F | 141 nM |
| CC(C)(C)OC(=O)NCCCNc1nn2c(-c3cnc(N)c(C(F)(F)F)c3)cnc2s1 | 50 to 1000 nM |
| CCNC(=O)N[C@H]1CC[C@@H](Nc2nn3c(-c4cnc(N)c(C(F)(F)F)c4)cnc3s2)CC1 | 63 nM |
| NCC1CCN(c2nn3c(-c4cnc(N)c(C(F)(F)F)c4)cnc3s2)CC1 | 50 to 1000 nM |
| CS(=O)(=O)N1CCC(Nc2nn3c(-c4cncc(C(F)(F)F)c4)cnc3s2)CC1 | 50 to 1000 nM |
| Nc1ncc(-c2cnc3sc(NCC4CCNCC4)nn23)cc1C(F)(F)F | 50 to 1000 nM |
| CC(=O)N1CCC(Nc2nn3c(-c4cnc(N)c(C(F)(F)F)c4)cnc3s2)CC1 | 18 nM |
| CC(C)(C)OC(=O)NC1CCN(c2nn3c(-c4cnc(N)c(C(F)(F)F)c4)cnc3s2)C1 (stereo not given) | 177 nM |
| COc1cncc(-c2cnc3sc(NC4CCN(C(=O)OC(C)(C)C)CC4)nn23)c1 | 50 to 1000 nM |
| CC(=O)N[C@H]1CC[C@@H](Nc2nn3c(-c4cnc(N)c(C(F)(F)F)c4)cnc3s2)CC1 | 50 to 1000 nM |
| Nc1ncc(-c2cnc3sc(N[C@H]4CC[C@H](NS(=O)(=O)c5ccc(F)cc5F)CC4)nn23)cc1C(F)(F)F | 50 to 1000 nM |
| CC(C)(C)OC(=O)NCCNc1nn2c(-c3cnc(N)c(C(F)(F)F)c3)cnc2s1 | 50 to 1000 nM |
| CO[C@H]1CC[C@H](N(C)c2nn3c(-c4cnc(N)c(C(F)(F)F)c4)cnc3s2)CC1 | 27 nM |
| CC(=O)O[C@H]1CC[C@H](Nc2nn3c(-c4cnc(N)c(C(F)(F)F)c4)c(Cl)nc3s2)CC1 | 50 to 1000 nM |
| CS(=O)(=O)NCCCNc1nn2c(-c3cnc(N)c(C(F)(F)F)c3)cnc2s1 | 1 to 50 nM |
| CC(C)(C)OC(=O)NCC1CCN(c2nn3c(-c4cnc(N)c(C(F)(F)F)c4)cnc3s2)CC1 | 50 to 1000 nM |
| CCNC(=O)N1CCC(CNc2nn3c(-c4cnc(N)c(C(F)(F)F)c4)cnc3s2)CC1 | 1 to 50 nM |
| CN[C@H]1CC[C@H](N(C)c2nn3c(-c4cnc(N)c(C(F)(F)F)c4)cnc3s2)CC1 | 50 to 1000 nM |
| COC(=O)C1CCN(c2nn3c(-c4cnc(N)c(C(F)(F)F)c4)cnc3s2)CC1 | 297 nM |
| CCNC(=O)N[C@H]1CC[C@@H](Nc2nn3c(-c4cnc(N)c(C(F)(F)F)c4)c(Cl)nc3s2)CC1 | 50 to 1000 nM |
| CN(c1nn2c(-c3cnc(N)c(C(F)(F)F)c3)cnc2s1)C1CCN(S(C)(=O)=O)CC1 | 62 nM |

The remaining lines, values ahead:

| IC50 | SMILES |
| --- | --- |
| 50 to 1000 nM | CC(C)(C)OC(=O)N[C@H]1CC[C@@H](Nc2nn3c(-c4cnc(N)c(C(F)(F)F)c4)cnc3s2)CC1 |
| 1 to 50 nM | CS(=O)(=O)N1CCC(N(CCN2CCCC2)c2nn3c(-c4cnc(N)c(C(F)(F)F)c4)cnc3s2)CC1 |
| 34 nM | CS(=O)(=O)N1CC2CN(c3nn4c(-c5cnc(N)c(C(F)(F)F)c5)cnc4s3)CC2C1 (stereo not given) |
| 205 nM | CN(c1nn2c(-c3cnc(N)c(C(F)(F)F)c3)cnc2s1)[C@H]1CC[C@](C)(O)CC1 |
| 1700 nM | Nc1ncc(-c2c(Cl)nc3sc(N[C@H]4CC[C@H](NS(=O)(=O)c5ccc(F)cc5F)CC4)nn23)cc1C(F)(F)F |
| 50 to 1000 nM | CN(c1nn2c(-c3cnc(N)c(C(F)(F)F)c3)cnc2s1)C1CCN(C(=O)OC(C)(C)C)CC1 |
| 50 to 1000 nM | Nc1ncc(-c2cnc3sc(N4CCC(C(=O)O)CC4)nn23)cc1C(F)(F)F |
| 179 nM | Nc1ncc(-c2cnc3sc(N4CCCC(CO)C4)nn23)cc1C(F)(F)F (stereo not given) |
| 50 to 1000 nM | COc1cncc(-c2cnc3sc(NCC4CCN(S(C)(=O)=O)CC4)nn23)c1 |
| 50 to 1000 nM | Nc1ncc(-c2cnc3sc(N4CCCC(N)C4)nn23)cc1C(F)(F)F (stereo not given) |
| 67 nM | Nc1ncc(-c2cnc3sc(NC4CCNCC4)nn23)cc1C(F)(F)F |
| 50 to 1000 nM | COc1cncc(-c2cnc3sc(NC4CCN(S(C)(=O)=O)CC4)nn23)c1 |
| 104 nM | Nc1ncc(-c2c(Cl)nc3sc(N[C@H]4CC[C@H](O)CC4)nn23)cc1C(F)(F)F |
| 274 nM | CC(=O)NC1CCCN(c2nn3c(-c4cnc(N)c(C(F)(F)F)c4)cnc3s2)C1 (stereo not given) |
| 1 to 50 nM | C[C@]1(O)CC[C@H](Nc2nn3c(-c4cnc(N)c(C(F)(F)F)c4)cnc3s2)CC1 |
| 1400 nM | CS(=O)(=O)N1CCC(Nc2nn3c(-c4cnc(N5CCNCC5)c(C(F)(F)F)c4)cnc3s2)CC1 |
| 131 nM | CC(C)(C)OC(=O)N1CC(S(=O)(=O)N2CCC(Nc3nn4c(-c5cnc(N)c(C(F)(F)F)c5)cnc4s3)CC2)C1 |
| 50 to 1000 nM | Nc1ncc(-c2cnc3sc(NCCN4CCNCC4)nn23)cc1C(F)(F)F |
| 50 to 1000 nM | Nc1ncc(-c2cnc3sc(N4CCCC(O)C4)nn23)cc1C(F)(F)F (stereo not given) |
| 14 nM | Nc1ncc(-c2cnc3sc(NC4CCN(S(=O)(=O)C5CNC5)CC4)nn23)cc1C(F)(F)F |
| 50 to 1000 nM | CN(c1nn2c(-c3cnc(N)c(C(F)(F)F)c3)cnc2s1)[C@H]1CC[C@H](O)CC1 |
| 50 to 1000 nM | Cc1cncc(-c2cnc3sc(NC4CCN(S(C)(=O)=O)CC4)nn23)c1 |
| 77 nM | Nc1ncc(-c2cnc3sc(N[C@H]4CC[C@@H](O)CC4)nn23)cc1C(F)(F)F |
| 50 to 1000 nM | COc1cncc(-c2cnc3sc(NC4CCNCC4)nn23)c1 |
| 50 to 1000 nM | Nc1ncc(-c2cnc3sc(N4CCCC(C(=O)O)C4)nn23)cc1C(F)(F)F (stereo not given) |

| IC50 | SMILES |
| --- | --- |
| 50 to 1000 nM | CCOC(=O)C1CCCN(c2nn3c(-c4cnc(N)c(C(F)(F)F)c4)cnc3s2)C1 (stereo not given) |
| 483 nM | CCNC(=O)NC1CCCN(c2nn3c(-c4cnc(N)c(C(F)(F)F)c4)cnc3s2)C1 (stereo not given) |
| 50 to 1000 nM | CCNC(=O)NCCNc1nn2c(-c3cnc(N)c(C(F)(F)F)c3)cnc2s1 |
| 50 to 1000 nM | CN(c1nn2c(-c3cnc(N)c(C(F)(F)F)c3)cnc2s1)C1CCC(=NOCCF)CC1 (stereo not given) |
| 50 to 1000 nM | CS(=O)(=O)NC1CCCN(c2nn3c(-c4cnc(N)c(C(F)(F)F)c4)cnc3s2)C1 (stereo not given) |
| 213 nM | CNC(=O)C1CCCN(c2nn3c(-c4cnc(N)c(C(F)(F)F)c4)cnc3s2)C1 (stereo not given) |
| 34 nM | Nc1ncc(-c2cnc3sc(NC4CCC5(CC4)OCCO5)nn23)cc1C(F)(F)F |
| 50 to 1000 nM | Nc1ncc(-c2cnc3sc(N4CCC(O)CC4)nn23)cc1C(F)(F)F |
| 1 to 50 nM | Nc1ncc(-c2cnc3sc(N[C@H]4CC[C@@H](N)CC4)nn23)cc1C(F)(F)F |
| 42 nM | Nc1ncc(-c2cnc3sc(N[C@H]4CC[C@H](N)CC4)nn23)cc1C(F)(F)F |
| 1 to 50 nM | Nc1ncc(-c2cnc3sc(NC4CCC(=NOCCF)CC4)nn23)cc1C(F)(F)F (stereo not given) |
| 50 to 1000 nM | Nc1ncc(-c2cnc3sc(N4CCC(N)CC4)nn23)cc1C(F)(F)F |
| 12 nM | CC(C)(C)OC(=O)N[C@H]1CC[C@H](Nc2nn3c(-c4cnc(N)c(C(F)(F)F)c4)cnc3s2)CC1 |
| 170 nM | Nc1ncc(-c2cnc3sc(N4CCCNC4=O)nn23)cc1C(F)(F)F |
| 85 nM | Nc1ncc(-c2cnc3sc(N4CCN5CCNCC5C4)nn23)cc1C(F)(F)F (stereo not given) |
| 50 to 1000 nM | CS(=O)(=O)N1CC2(CCCN(c3nn4c(-c5cnc(N)c(C(F)(F)F)c5)cnc4s3)C2)C1 |
| 109 nM | Nc1ncc(-c2c(Cl)nc3sc(N[C@H]4CC[C@H](N)CC4)nn23)cc1C(F)(F)F |
| 50 to 1000 nM | CC(C)(C)OC(=O)N1CCC2(CCCN(c3nn4c(-c5cnc(N)c(C(F)(F)F)c5)cnc4s3)C2)CC1 |
| 1000 nM | Nc1ncc(-c2cnc3sc(N4CCC(N)C4)nn23)cc1C(F)(F)F (stereo not given) |
| 50 to 1000 nM | Nc1ccc(-c2cnc3sc(N[C@H]4CC[C@H](O)CC4)nn23)cn1 |
| 50 to 1000 nM | NC(=O)C1CCN(c2nn3c(-c4cnc(N)c(C(F)(F)F)c4)cnc3s2)CC1 |
| 269 nM | CS(=O)(=O)NCCNc1nn2c(-c3cnc(N)c(C(F)(F)F)c3)cnc2s1 |
| 50 to 1000 nM | CC(C)(C)OC(=O)N1CCN(c2nn3c(-c4cnc(N)c(C(F)(F)F)c4)cnc3s2)CC1 |
| 50 to 1000 nM | CCNC(=O)N1CCC(N(C)c2nn3c(-c4cnc(N)c(C(F)(F)F)c4)cnc3s2)CC1 |
